Patent publication US7211587B2, “Quinoline derivatives and quinazoline derivatives having azolyl group” (Kirin Beer Kabushiki Kaisha, priority 2001, dated 2007)
Counter-ions that a name gives are not always drawn.

What was measured:
[1] = test system: Human pulmonary carcinoma cells (LC-6); assay: Antitumor activity against human pulmonary carcinoma cells (LC-6) transplanted into nude mice; format: in vivo; conditions: LC-6 in nude mice, oral 20 mg/kg once a day for 9 days; for inhibition in vivo at 20 mg/kg: Mus musculus, 216 h, read-out: TGIR (tumor growth inhibition rate)
Experimental: Human pulmonary carcinoma cells (LC-6) (obtained from Central Laboratories for Experimental Animals) were transplanted into nude mice. When the tumor volume became about 100 mm^3, the mice were grouped so that each group consisted of four mice and the average tumor volume was even among the groups. A test compound was orally administered at a dose of 20 mg/kg to the test groups every day once a day for 9 days, while only a vehicle was administered to a control group in the manner as in the test groups. The tumor growth inhibition rate (TGIR) was calculated as follows: The tumor growth inhibition rate (TGIR)=(1−TX/CX)×100 wherein CX represents the volume of tumor at day X for the control group when the tumor volume at the first day of the administration was presumed to be 1; and TX represents the tumor volume for test compound administration groups.

human KDR = biological target: T1, human KDR (Homo sapiens, UniProt P35968); assay: Inhibitory activity against KDR phosphorylation by ELISA (VEGF-stimulated NIH 3T3 cells expressing human KDR); format: cell-based; conditions: VEGF 100 ng/ml, compound 1 hr, read-out: IC50 (inhibition of KDR phosphorylation)
T1 construct: expressed in transfected cells; host or cells: NIH 3T3 cells (mouse fibroblasts) stably expressing human KDR
Experimental: The harvested cells were inoculated into wells of a collagen-type one-coat 96-well flat-bottom plate, each containing the same medium, in an amount of 1.5×10^4 per well, followed by cultivation at 37° C. overnight. The medium was then replaced by a DMEM medium containing 0.1% fetal calf serum. A solution of a test compound in dimethyl sulfoxide was added to each well, and the cultivation was continued at 37° C. for additional one hr. A human recombinant vascular endothelial growth factor (hereinafter abbreviated to “VEGF”) was added to a final concentration of 100 ng/ml, and the stimulation of cells was carried out at 37° C. for 2 min. The medium was removed, the cells were washed with phosphate buffered saline (pH 7.4), and 50 μl of a solubilization buffer (20 mM HEPES (pH 7.4), 150 mM NaCl, 0.2% Triton X-100, 10% glycerol, 5 mM sodium orthovanadylate, 5 mM disodium ethylenediaminetetraacetate, and 2 mM Na4P2O7) was then added thereto. The mixture was shaken at 4° C. for 2 hr to prepare a cell extract.
Separately, phosphate buffered saline (50 μl, pH 7.4) containing 5 μg/ml of an anti-phospho-tyrosine antibody (PY20; purchased from Transduction Laboratories) was added to a microplate for ELISA (Maxisorp; purchased from NUNC), followed by standing at 4° C. overnight to form a solid phase on the wells. After washing of the plate, 300 μl of a blocking solution was added, followed by standing at room temperature for 2 hr to perform blocking. After washing, the whole quantity of the cell extract was transferred to the wells, and the plate was then allowed to stand at 4° C. overnight. After washing, an anti-KDR antibody (purchased from Santa Cruz) was allowed to react at room temperature for one hr, and, after washing, a peroxidase-labeled anti-rabbit Ig antibody (purchased from Amersham) was allowed to react at room temperature for one hr. After washing, a chromophoric substrate for peroxidase (purchased from Sumitomo Bakelite Co., Ltd.) was added thereto to initiate a reaction. After a suitable level of color development, a reaction termination solution was added to stop the reaction, and the absorbance at 450 nm was measured with a microplate reader. The KDR phosphorylation activity for each well was determined by presuming the absorbance with the addition of VEGF and without the addition of the medicament to be 100% KDR phosphorylation activity and the absorbance without the addition of the medicament and VEGF to be 0% KDR phosphorylation activity.

T1 sequence (P35968 20-1356): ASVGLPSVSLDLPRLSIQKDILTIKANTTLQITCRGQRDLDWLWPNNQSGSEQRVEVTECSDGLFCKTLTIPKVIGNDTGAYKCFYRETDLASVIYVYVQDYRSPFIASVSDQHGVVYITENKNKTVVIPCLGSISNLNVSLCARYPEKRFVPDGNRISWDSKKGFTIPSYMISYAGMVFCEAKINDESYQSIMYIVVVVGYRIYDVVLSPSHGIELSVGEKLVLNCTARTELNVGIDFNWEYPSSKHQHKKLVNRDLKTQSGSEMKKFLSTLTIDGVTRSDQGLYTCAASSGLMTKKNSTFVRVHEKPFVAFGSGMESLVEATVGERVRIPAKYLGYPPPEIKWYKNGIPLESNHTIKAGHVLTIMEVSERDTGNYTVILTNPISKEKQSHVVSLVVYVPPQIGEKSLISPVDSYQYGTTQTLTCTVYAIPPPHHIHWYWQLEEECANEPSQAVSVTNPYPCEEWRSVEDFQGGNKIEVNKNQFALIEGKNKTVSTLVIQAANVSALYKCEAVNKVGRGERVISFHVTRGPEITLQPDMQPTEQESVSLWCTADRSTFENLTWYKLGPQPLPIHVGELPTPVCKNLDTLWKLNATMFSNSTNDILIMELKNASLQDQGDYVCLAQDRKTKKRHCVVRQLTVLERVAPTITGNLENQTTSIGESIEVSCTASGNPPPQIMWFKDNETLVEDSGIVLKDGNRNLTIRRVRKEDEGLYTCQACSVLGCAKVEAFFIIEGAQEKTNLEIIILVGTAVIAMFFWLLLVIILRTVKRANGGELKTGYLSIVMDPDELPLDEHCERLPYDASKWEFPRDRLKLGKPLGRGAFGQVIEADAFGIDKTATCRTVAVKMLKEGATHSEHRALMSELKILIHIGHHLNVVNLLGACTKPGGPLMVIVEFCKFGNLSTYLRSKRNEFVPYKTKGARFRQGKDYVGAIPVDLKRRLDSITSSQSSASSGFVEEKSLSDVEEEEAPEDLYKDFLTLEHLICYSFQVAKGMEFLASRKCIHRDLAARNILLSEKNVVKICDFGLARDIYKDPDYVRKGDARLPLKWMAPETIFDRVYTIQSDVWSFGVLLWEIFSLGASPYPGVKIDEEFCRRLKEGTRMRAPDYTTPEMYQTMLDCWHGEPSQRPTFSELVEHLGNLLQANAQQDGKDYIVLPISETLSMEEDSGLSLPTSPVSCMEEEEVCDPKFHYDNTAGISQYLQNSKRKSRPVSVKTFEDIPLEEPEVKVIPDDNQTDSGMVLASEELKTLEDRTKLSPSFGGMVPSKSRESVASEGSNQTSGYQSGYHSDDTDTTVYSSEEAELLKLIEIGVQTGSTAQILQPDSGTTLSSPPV

COc1cc2nccc(Oc3ccc(NC(=O)Nc4nc(C)cs4)c(Cl)c3)c2cc1OC [Ex. 22, N-{2-Chloro-4-[(6,7-dimethoxy-4-quinolyl)oxy]phenyl}-N′-(4-methyl-1,3-thiazol-2-yl)urea]
inhibition in vivo at 20 mg/kg [1]: 43.8%
IC50 (human KDR): < 1 nM

COc1cc2nccc(Oc3ccc(NC(=O)Nc4nnc(C(F)(F)F)s4)c(F)c3)c2cc1OC [Ex. 51, N-{4-[(6,7-Dimethoxy-4-quinolyl)oxy]-2-fluorophenyl}-N′-[5-(trifluoromethyl)-1,3,4-thiadiazol-2-yl]urea]
inhibition in vivo at 20 mg/kg [1]: 45.6%
IC50 (human KDR): 3.7 nM

COc1cc2nccc(Oc3ccc(NC(=O)Nc4cc(C)on4)c(F)c3)c2cc1OC [Ex. 9, N-{4-[(6,7-Dimethoxy-4-quinolyl)oxy]-2-fluorophenyl}-N′-(5-methyl-3-isoxazolyl)urea]
inhibition in vivo at 20 mg/kg [1]: 63.5%
IC50 (human KDR): 0.2 nM

CCOC(=O)Cc1csc(NC(=O)Nc2ccc(Oc3ccnc4cc(OC)c(OC)cc34)cc2F)n1 [Ex. 29, Ethyl 2-{2-[({4-[(6,7-dimethoxy-4-quinolyl)oxy]-2-fluoroanilino}carbonyl)amino]-1,3-thiazol-4-yl}acetate]
inhibition in vivo at 20 mg/kg [1]: 66.1%
IC50 (human KDR): 49.4 nM

COc1cc2nccc(Oc3ccc(NC(=O)Nc4nnc(C(F)(F)F)s4)cc3F)c2cc1OC [Ex. 52, N-{4-[(6,7-Dimethoxy-4-quinolyl)oxy]-3-fluorophenyl}-N′-[5-(trifluoromethyl)-1,3,4-thiadiazol-2-yl]urea]
inhibition in vivo at 20 mg/kg [1]: 20.7%
IC50 (human KDR): 13 nM

COc1cc2nccc(Oc3ccc(NC(=O)Nc4ncc(C)s4)c(F)c3)c2cc1OC [Ex. 21, N-{4-[(6,7-Dimethoxy-4-quinolyl)oxy]-2-fluorophenyl}-N′-(5-methyl-1.3-thiazol-2-yl)urea hydrochloride]
inhibition in vivo at 20 mg/kg [1]: 66.6%
IC50 (human KDR): 0.4 nM

COc1cc2nccc(Oc3ccc(NC(=O)Nc4nc(C)c(C)s4)c(Cl)c3)c2cc1OC [Ex. 24, N-{2-Chloro-4-[(6,7-dimethoxy-4-quinolyl)oxy]phenyl}-N′-(4,5-dimethyl-1,3-thiazol-2-yl)urea]
inhibition in vivo at 20 mg/kg [1]: 39.8%
IC50 (human KDR): 1 nM

COc1cc2nccc(Oc3ccc(NC(=O)Nc4cc(C)no4)c(F)c3)c2cc1OC [Ex. 6, N-{4-[(6,7-Dimethoxy-4-quinolyl)oxy]-2-fluorophenyl}-N′-(3-methyl-5-isoxazolyl)urea]
inhibition in vivo at 20 mg/kg [1]: 29.3%
IC50 (human KDR): < 1 nM

COc1cc2nccc(Oc3ccc(NC(=O)Nc4cc(C)no4)c(Cl)c3)c2cc1OC [Ex. 5, N-{2-Cloro-4-[(6,7-dimethoxy-4-quinolyl)oxy]phenyl}-N′-(3-methyl-5-isoxazolyl)urea]
TGIR (tumor growth inhibition rate) [1]: 29.5%
IC50 (human KDR): < 1 nM

COc1cc2nccc(Oc3ccc(NC(=O)Nc4nc(C)c(C)s4)cc3Cl)c2cc1OC [Ex. 25, N-{3-Chloro-4-[(6,7-dimethoxy-4-quinolyl)oxy]phenyl}-N′-(4,5-dimethyl-1,3-thiazol-2-yl)urea]
inhibition in vivo at 20 mg/kg [1]: 18.8%
IC50 (human KDR): 1.9 nM

COc1cc2nccc(Oc3ccc(NC(=O)Nc4nnc(C(F)(F)F)s4)cc3)c2cc1OC [Ex. 50, N-{4-[(6,7-Dimethoxy-4-quinolyl)oxy]phenyl}-N′-[5-(trifluoromethyl)-1,3,4-thiadiazol-2-yl]urea]
inhibition in vivo at 20 mg/kg [1]: 11.9%
IC50 (human KDR): 6.3 nM

COc1cc2ncnc(Oc3ccc(NC(=O)Nc4ncc(C)s4)c(Cl)c3)c2cc1OC [Ex. 39, N-{2-Chloro-4-[(6,7-dimethoxy-4-quinazolinyl)oxy]phenyl}-N′-(5-methyl-1,3-thiazol-2-yl)urea]
inhibition in vivo at 20 mg/kg [1]: 64%
IC50 (human KDR): < 1 nM

COc1cc2nccc(Oc3ccc(NC(=O)Nc4ccon4)cc3F)c2cc1OC [Ex. 3, N-{4-[(6,7-Dimethoxy-4-quinolyl)oxy]-3-fluorophenyl}-N′-(3-isoxazolyl)urea]
inhibition in vivo at 20 mg/kg [1]: 39.5%
IC50 (human KDR): < 1 nM

COc1cc2ncnc(Oc3ccc(NC(=O)Nc4nc(C)c(C)s4)c(Cl)c3)c2cc1OC [Ex. 40, N-{2-Chloro-4-[(6,7-dimethoxy-4-quinazolinyl)oxy]phenyl}-N′-(4,5-dimethyl-1,3-thiazol-2-yl)urea]
inhibition in vivo at 20 mg/kg [1]: 34.2%
IC50 (human KDR): < 1 nM

COc1cc2nccc(Oc3ccc(NC(=O)Nc4cc(C)no4)cc3Cl)c2cc1OC [Ex. 2, N-{3-Chloro-4-[(6,7-dimethoxy-4-quinolyl)oxy]phenyl}-N′-(3-methyl-5-isoxazolyl)urea]
IC50 (human KDR): 2 nM

CCc1nnc(NC(=O)Nc2ccc(Oc3ccnc4cc(OC)c(OC)cc34)c(C)c2C)s1 [Ex. 62, N-{4-[(6,7-Dimethoxy-4-quinolyl)oxy]-2,3-dimethylphenyl}-N′-(5-ethyl-1,3,4-thiadiazol-2-yl)urea]
IC50 (human KDR): 1.5 nM

COc1cc2ncnc(Oc3ccc(NC(=O)Nc4cc(C)no4)c(Cl)c3)c2cc1OC [Ex. 13, N-{2-Chloro-4-[(6,7-dimethoxy-4-quinazolinyl)oxy]phenyl}-N′-(3-methyl-5-isoxazolyl)urea]
IC50 (human KDR): 2.2 nM

COc1cc2ncnc(Oc3ccc(NC(=O)Nc4cc(C)no4)cc3)c2cc1OC [Ex. 11, N-{4-[(6,7-Dimethoxy-4-quinazolinyl)oxy]-phenyl}-N′-(3-methyl-5-isoxazolyl)urea]
IC50 (human KDR): 9.3 nM

COc1cc2ncnc(Oc3ccc(NC(=O)Nc4nc(C)cs4)cc3Cl)c2cc1OC [Ex. 48, N-{3-Chloro-4-[(6,7-dimethoxy-4-quinazolinyl)oxy]phenyl}-N′-(4-methyl-1,3-thiazol-2-yl)urea]
IC50 (human KDR): 4.4 nM

COc1cc2ncnc(Oc3ccc(NC(=O)Nc4cc(C)ns4)c(Cl)c3)c2cc1OC [Ex. 17, N-{2-Chloro-4-[(6,7-dimethoxy-4-quinazolinyl)oxy]phenyl}-N′-(3-methyl-5-isothiazolyl)-urea]
IC50 (human KDR): 4.9 nM

CCc1nnc(NC(=O)Nc2ccc(Oc3ccnc4cc(OC)c(OC)cc34)c(Cl)c2)s1 [Ex. 66, N-{3-Chloro-4-[(6,7-dimethoxy-4-quinolyl)oxy]phenyl}-N′-(5-ethyl-1,3,4-thiadiazol-2-yl)urea]
IC50 (human KDR): 3.7 nM

COc1cc2nccc(Oc3ccc(NC(=O)Nc4ccn[nH]4)cc3Cl)c2cc1OC [Ex. 19, N-{3-Chloro-4-[(6,7-dimethoxy-4-quinolyl)oxy]phenyl}-N′-(1H-5-pyrazolyl)urea]
IC50 (human KDR): 17.5 nM

COc1cc2nccc(Oc3ccc(NC(=O)Nc4nc(C(C)(C)C)cs4)c(Cl)c3)c2cc1OC [Ex. 33, N-[4-(Tert-butyl)-1,3-thiazol-2-yl]-N′-{2-chloro-4-[(6,7-dimethoxy-4-quinolyl)oxy]phenyl}urea]
IC50 (human KDR): 21.1 nM

CCOC(=O)Cc1csc(NC(=O)Nc2ccc(Oc3ccnc4cc(OC)c(OC)cc34)cc2Cl)n1 [Ex. 31, Ethyl 2-{2-[({2-chloro-4-[(6,7-dimethoxy-4-quinolyl)oxy]anilino}carbonyl)amino]-1,3-thiazol-4-yl}acetate]
IC50 (human KDR): 33.9 nM

CCc1nnc(NC(=O)Nc2ccc(Oc3ccnc4cc(OC)c(OC)cc34)c(F)c2)s1 [Ex. 64, N-{4-[(6,7-Dimethoxy-4-quinolyl)oxy]-3-fluorophenyl}-N′-(5-ethyl-1,3,4-thiadiazol-2-yl)urea]
IC50 (human KDR): 1.5 nM

CCSc1nnc(NC(=O)Nc2ccc(Oc3ccnc4cc(OC)c(OC)cc34)c(C)c2C)s1 [Ex. 71, N-{4-[(6,7-Dimethoxy-4-quinolyl)oxy]-2,3-dimethylphenyl}-N′-[5-(ethylsulfanyl)-1,3,4-thiadiazol-2-yl]urea]
IC50 (human KDR): 3.1 nM
